Assays:
Trypsin II = target: T1, Trypsin II (Bos taurus, UniProt Q29463); assay: Binding affinity on bovine pancreatic trypsin enzyme
T1 sequence (Q29463 whole entry): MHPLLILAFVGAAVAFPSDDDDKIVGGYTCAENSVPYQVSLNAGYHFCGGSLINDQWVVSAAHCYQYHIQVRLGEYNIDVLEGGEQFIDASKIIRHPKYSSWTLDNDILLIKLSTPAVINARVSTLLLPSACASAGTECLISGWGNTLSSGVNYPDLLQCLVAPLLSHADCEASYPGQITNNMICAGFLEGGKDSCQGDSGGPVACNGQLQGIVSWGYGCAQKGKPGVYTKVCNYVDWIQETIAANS

Prothrombin = Prothrombin (Homo sapiens, UniProt P00734); assay: Binding affinity on Thrombin

Row | Ki (Trypsin II) [nM] | Ki (Prothrombin) [nM] | Compound
1 | > 2900 |  | Nc1nccc2ccc(CN3CC[C@H](NS(=O)(=O)c4cc5ncccc5s4)C3=O)cc12
2 | > 2900 | > 4000 | O=C1[C@@H](NS(=O)(=O)c2cc3ncccc3s2)CCN1Cc1cc2cc[nH]cc-2n1

From ChEMBL document CHEMBL1133625, “Crystal structures of human factor Xa complexed with potent inhibitors” (J Med Chem, 2000)
